Test results from PubChem BioAssay (NCI).
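Growth conditions: 96-well plates. Treatment: test compound, 48 hours, 5 concentrations. Analysis: linear interpolation between bracketing concentrations; unreached endpoints set to highest concentration. GI50: concentration for 50% inhibition of growth. Definition used: TGI = concentration required for complete inhibition of growth.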

Key:
Experiment in all cases: growth of human tumour cells (NCI), 48 h
[1] = test system: HCT-116 colon
[2] = test system: KM12 colon
[3] = test system: SNB-75 CNS
[4] = test system: COLO 205 colon
[5] = test system: DMS 114 small cell lung
[6] = test system: 786-0 renal
[7] = test system: HOP-92 NSCLC
[8] = test system: SN12C renal
[9] = test system: OVCAR-3 ovarian
[10] = test system: NCI-H460 lung
[11] = test system: MOLT-4 leukemia
[12] = test system: SK-OV-3 ovarian
[13] = test system: A498 renal
[14] = test system: DLD-1 colon
[15] = test system: K-562 leukemia
[16] = test system: RXF 393 renal
[17] = test system: TK-10 renal
[18] = test system: UACC-62 melanoma
[19] = test system: HCC-2998 colon
[20] = test system: EKVX NSCLC
[21] = test system: SK-MEL-28 melanoma
[22] = test system: OVCAR-5 ovarian
[23] = test system: KM20L2 colon
[24] = test system: NCI-H522 lung
[25] = test system: UACC-257 melanoma
[26] = test system: NCI-H23 lung
[27] = test system: RPMI-8226 leukemia
[28] = test system: UO-31 renal
[29] = test system: SNB-19 CNS
[30] = test system: ACHN renal
[31] = test system: SW-620 colon
[32] = test system: SK-MEL-5 melanoma
[33] = test system: LOX IMVI melanoma
[34] = test system: M19-MEL melanoma
[35] = test system: SK-MEL-2 melanoma
[36] = test system: MALME-3M melanoma
[37] = test system: HOP-18 NSCLC
[38] = test system: SNB-78 CNS
[39] = test system: U251 CNS
[40] = test system: OVCAR-4 ovarian
[41] = test system: SF-295 CNS
[42] = test system: XF 498 CNS
[43] = test system: HT29 colon
[44] = test system: IGROV1 ovarian
[45] = test system: HOP-62 NSCLC
[46] = test system: CAKI-1 renal
[47] = test system: HCT-15 colon
[48] = test system: LXFL 529 NSCLC
[49] = test system: SF-539 CNS
[50] = test system: OVCAR-8 ovarian
[51] = test system: DMS 273 small cell lung
[52] = test system: SF-268 CNS
[53] = test system: M14 melanoma
[54] = test system: A549 NSCLC
[55] = test system: CCRF-CEM leukemia
[56] = test system: SR leukemia
[57] = test system: HL-60(TB) leukemia
[58] = test system: NCI-H226 lung

Compound CCC[CH2][Sn]1([CH2]CCC)[O]C(=O)CN=C(C)c2ccccc2[O]1 has a GI50 [1] of 1550 nM, a TGI [1] of 2920 nM and a GI50 [2] of 1270 nM. The TGI [2] was 2580 nM, the GI50 [3] was 735 nM and the TGI [3] was 2340 nM. It also gave a GI50 [4] of 569 nM, a TGI [4] of 1900 nM and a GI50 [5] of 227 nM. The TGI [5] was 655 nM, the GI50 [6] was 1290 nM and the TGI [6] was 2580 nM. The GI50 [7] was 978 nM, the TGI [7] was 2180 nM and the GI50 [8] was 1130 nM. The TGI [8] was 2340 nM, the GI50 [9] was 1400 nM and the TGI [9] was 2730 nM. It also gave a GI50 [10] of 1790 nM, a TGI [10] of 3550 nM and a GI50 [11] of 740 nM. The TGI [11] was 5040 nM, the GI50 [12] was 2370 nM and the TGI [12] was 4140 nM. It also gave a GI50 [13] of 2720 nM, a TGI [13] of 11400 nM and a GI50 [14] of 1940 nM. The TGI [14] was greater than 100000 nM, the GI50 [15] was 289 nM and the TGI [15] was 4740 nM. It also gave a GI50 [16] of 222 nM, a TGI [16] of 786 nM and a GI50 [17] of 586 nM. It also gave a TGI [17] of 1780 nM, a GI50 [18] of 922 nM and a TGI [18] of 2210 nM. For the same compound, the GI50 [19] was 1530 nM, the TGI [19] was 2920 nM and the GI50 [20] was 1480 nM. It also gave a TGI [20] of 2990 nM, a GI50 [21] of 868 nM and a TGI [21] of 2110 nM. The GI50 [22] was 1810 nM, the TGI [22] was 3240 nM and the GI50 [23] was 1550 nM. It also gave a TGI [23] of 2970 nM, a GI50 [24] of 179 nM and a TGI [24] of 369 nM. The GI50 [25] was 955 nM, the TGI [25] was 2200 nM and the GI50 [26] was 429 nM. It also gave a TGI [26] of 1780 nM, a GI50 [27] of 468 nM and a TGI [27] of 2800 nM. The GI50 [28] was 1320 nM, the TGI [28] was 2630 nM and the GI50 [29] was 1090 nM. It also gave a TGI [29] of 2290 nM, a GI50 [30] of 881 nM and a TGI [30] of 2130 nM. The GI50 [31] was 413 nM, the TGI [31] was 1590 nM and the GI50 [32] was 2550 nM. It also gave a TGI [32] greater than 100000 nM, a GI50 [33] of 533 nM and a TGI [33] of 1840 nM. For the same compound, the GI50 [34] was 528 nM, the TGI [34] was 1800 nM and the GI50 [35] was 500 nM. For the same compound, the TGI [35] was 1550 nM, the GI50 [36] was 1040 nM and the TGI [36] was 2300 nM. It also gave a GI50 [37] of 1500 nM, a TGI [37] of 2850 nM and a GI50 [38] of 312 nM. The TGI [38] was 1700 nM, the GI50 [39] was 1100 nM and the TGI [39] was 2300 nM. The GI50 [40] was 1730 nM, the TGI [40] was 3620 nM and the GI50 [41] was 1480 nM. It also gave a TGI [41] of 2860 nM, a GI50 [42] of 1740 nM and a TGI [42] of 3190 nM. For the same compound, the GI50 [43] was 1660 nM, the TGI [43] was 3100 nM and the GI50 [44] was 2830 nM. It also gave a TGI [44] greater than 100000 nM, a GI50 [45] of 5210 nM and a TGI [45] greater than 100000 nM. For the same compound, the GI50 [46] was 534 nM, the TGI [46] was 2100 nM and the GI50 [47] was 1150 nM. The TGI [47] was 2460 nM, the GI50 [48] was 254 nM and the TGI [48] was 1280 nM. For the same compound, the GI50 [49] was 2780 nM, the TGI [49] was greater than 100000 nM and the GI50 [50] was 1390 nM. It also gave a TGI [50] of 2830 nM, a GI50 [51] of 1390 nM and a TGI [51] of 2740 nM. It also gave a GI50 [52] of 306 nM, a TGI [52] of 1650 nM and a GI50 [53] of 1370 nM. It also gave a TGI [53] of 2670 nM, a GI50 [54] of 3000 nM and a TGI [54] of 9620 nM.

With O=C1N=CN=C2C=CC(Cl)=C(I)C12 (stereo not given) the TGI [1] was greater than 100000 nM, the TGI [2] was greater than 100000 nM and the TGI [4] was greater than 100000 nM. For the same compound, the TGI [5] was greater than 100000 nM, the TGI [6] was greater than 100000 nM and the TGI [8] was greater than 100000 nM. The TGI [9] was greater than 100000 nM, the TGI [10] was greater than 100000 nM and the TGI [55] was greater than 100000 nM. The TGI [11] was greater than 100000 nM, the TGI [12] was greater than 100000 nM and the TGI [13] was greater than 100000 nM. The TGI [14] was greater than 100000 nM, the TGI [15] was greater than 100000 nM and the TGI [16] was 70800 nM. It also gave a TGI [56] greater than 100000 nM, a TGI [17] greater than 100000 nM and a TGI [18] greater than 100000 nM. The TGI [19] was greater than 100000 nM, the TGI [20] was greater than 100000 nM and the TGI [21] was greater than 100000 nM. It also gave a TGI [22] greater than 100000 nM, a TGI [23] greater than 100000 nM and a TGI [25] greater than 100000 nM. The TGI [26] was greater than 100000 nM, the TGI [27] was greater than 100000 nM and the TGI [28] was 65700 nM. It also gave a TGI [29] greater than 100000 nM, a TGI [30] greater than 100000 nM and a TGI [31] greater than 100000 nM. The TGI [32] was greater than 100000 nM, the TGI [33] was greater than 100000 nM and the TGI [34] was greater than 100000 nM. The TGI [57] was greater than 100000 nM, the TGI [35] was greater than 100000 nM and the TGI [36] was greater than 100000 nM. For the same compound, the TGI [39] was greater than 100000 nM, the TGI [40] was greater than 100000 nM and the TGI [41] was greater than 100000 nM. It also gave a TGI [42] greater than 100000 nM, a TGI [43] greater than 100000 nM and a TGI [44] greater than 100000 nM. For the same compound, the TGI [45] was greater than 100000 nM, the TGI [46] was greater than 100000 nM and the TGI [48] was greater than 100000 nM. The TGI [50] was greater than 100000 nM, the TGI [51] was greater than 100000 nM and the TGI [52] was greater than 100000 nM. For the same compound, the TGI [53] was greater than 100000 nM and the TGI [54] was greater than 100000 nM.

Compound O=CC1CCC=CC1NC(=O)OCc1ccccc1 (stereo not given) has a TGI [1] greater than 100000 nM, a TGI [2] greater than 100000 nM and a TGI [3] of 94300 nM. For the same compound, the TGI [4] was greater than 100000 nM, the TGI [5] was 53600 nM and the TGI [6] was greater than 100000 nM. The TGI [7] was greater than 100000 nM, the TGI [8] was greater than 100000 nM and the TGI [10] was greater than 100000 nM. For the same compound, the TGI [55] was greater than 100000 nM, the TGI [11] was greater than 100000 nM and the TGI [12] was greater than 100000 nM. The TGI [14] was greater than 100000 nM, the TGI [15] was greater than 100000 nM and the TGI [16] was greater than 100000 nM. The TGI [56] was greater than 100000 nM, the TGI [17] was greater than 100000 nM and the TGI [18] was greater than 100000 nM. It also gave a TGI [58] greater than 100000 nM, a TGI [20] greater than 100000 nM and a TGI [21] greater than 100000 nM. The TGI [22] was greater than 100000 nM, the TGI [24] was greater than 100000 nM and the TGI [25] was greater than 100000 nM. For the same compound, the TGI [26] was greater than 100000 nM, the TGI [27] was greater than 100000 nM and the TGI [28] was greater than 100000 nM. It also gave a TGI [30] greater than 100000 nM, a TGI [31] greater than 100000 nM and a TGI [32] greater than 100000 nM. The TGI [33] was greater than 100000 nM, the TGI [34] was greater than 100000 nM and the TGI [57] was 46500 nM. For the same compound, the TGI [35] was greater than 100000 nM, the TGI [37] was greater than 100000 nM and the TGI [38] was greater than 100000 nM. It also gave a TGI [39] greater than 100000 nM, a TGI [40] greater than 100000 nM and a TGI [41] greater than 100000 nM. For the same compound, the TGI [42] was greater than 100000 nM, the TGI [43] was greater than 100000 nM and the TGI [44] was greater than 100000 nM. The TGI [45] was greater than 100000 nM, the TGI [46] was greater than 100000 nM and the TGI [47] was greater than 100000 nM. The TGI [48] was greater than 100000 nM, the TGI [49] was 51900 nM and the TGI [50] was 52300 nM. It also gave a TGI [51] greater than 100000 nM, a TGI [52] greater than 100000 nM and a TGI [53] greater than 100000 nM. The TGI [54] was greater than 100000 nM.
